The source of these data is ChEMBL document CHEMBL2407043, “Hydantoin based inhibitors of MMP13--discovery of AZD6605” (Bioorg Med Chem Lett, 2013).

Molecules are shown by their SMILES. Converted amounts (≈) assume the structure as drawn.

The species entered for data set [1] is Rattus norvegicus. The experiment in a line: Toxicity in rat assessed as mortality after 28 days. The class given is organism-based. The following applies: in vivo, 672 h.
Data set [2] is described as follows: Intrinsic clearance in human hepatocytes measured per 10^6 cells. The class given is ADME, cell-based, Hepatocyte. As to conditions: read-out: CLH.
The species named for data set [3] is Rattus norvegicus. The experiment in a line: Toxicity in rat assessed as change in food and water consumption after 28 days. The class given is organism-based. The following applies: in vivo, 672 h.
A short description of data set [4]: Apparent permeability across basolateral to apical side in human Caco2 cells at 10 uM. The class given is ADME, cell-based. As to conditions: Caco-2.
Another data set addresses Cytochrome P450 2C9 (Homo sapiens, UniProt P11712). The experiment in a line: Inhibition of human CYP2C9. The class given is ADME.
Data set [5] can be described thus: Half life in rat at 2 mg/kg, iv and 5 mg/kg, po. In kind it is ADME, organism-based. The following applies: in vivo.
Another data set deals with Cytochrome P450 2D6 (Homo sapiens, UniProt P10635). The experiment in a line: Inhibition of human CYP2D6. The class given is ADME.
Cytochrome P450 2D6, sequence (P10635 whole entry): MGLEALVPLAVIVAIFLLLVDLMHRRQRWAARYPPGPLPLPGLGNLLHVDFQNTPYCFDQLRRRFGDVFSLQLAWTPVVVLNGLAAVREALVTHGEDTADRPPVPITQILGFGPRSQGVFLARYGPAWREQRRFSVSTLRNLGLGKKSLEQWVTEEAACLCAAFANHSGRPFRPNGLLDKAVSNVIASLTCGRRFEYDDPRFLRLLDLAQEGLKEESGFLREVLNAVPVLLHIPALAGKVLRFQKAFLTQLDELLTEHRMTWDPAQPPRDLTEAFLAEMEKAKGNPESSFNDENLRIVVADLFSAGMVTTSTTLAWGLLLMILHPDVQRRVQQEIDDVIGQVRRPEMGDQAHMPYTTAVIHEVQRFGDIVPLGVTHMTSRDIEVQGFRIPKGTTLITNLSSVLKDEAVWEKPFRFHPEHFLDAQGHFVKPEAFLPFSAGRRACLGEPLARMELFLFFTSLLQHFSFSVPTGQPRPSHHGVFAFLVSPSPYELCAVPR
Data set [6] in a line: Clearance in rat at 2 mg/kg, iv and 5 mg/kg, po. In kind it is ADME, organism-based. As to conditions: in vivo.
A short description of data set [7]: Solubility of compound in fasted state simulated intestinal fluid. The class given is physicochemical.
The nature of data set [8]: Half life in dog at 0.5 mg/kg, iv and 1 mg/kg, po. The class given is ADME, organism-based, Canis lupus familiaris. The following applies: in vivo.
Another data set can be described thus: physchem. The following applies: buffer, pH 7.4.
The nature of data set [9]: Volume of distribution at steady state in rat at 2 mg/kg, iv and 5 mg/kg, po. As to conditions: in vivo, read-out: Vdss. In kind it is ADME, organism-based.
The nature of data set [10]: Oral bioavailability in dog at 1 mg/kg. The class given is ADME, organism-based, Canis lupus familiaris. The following applies: in vivo.
Data set [11] is described as follows: Clearance in dog at 0.5 mg/kg, iv and 1 mg/kg, po. The class given is ADME, organism-based, Canis lupus familiaris. As to conditions: in vivo.
The nature of data set [12]: Fraction unbound in dog plasma. In kind it is ADME, cell-free, Canis lupus familiaris.
The species named for data set [13] is Rattus norvegicus. Description: Toxicity in rat assessed as change in body weight after 28 days. As to conditions: in vivo, 672 h. In kind it is organism-based.
Data set [14] can be described thus: Genotoxicity in mouse lymphoma cells. In kind it is toxicity, cell-based.
The species entered for data set [15] is Rattus norvegicus. The experiment in a line: Toxicity in rat assessed as fibrodysplasia after 28 days. In kind it is organism-based. The following applies: in vivo, 672 h.
Data set [16] can be described thus: Fraction unbound in human plasma. The class given is ADME, cell-free.
The target in the next data set is Cytochrome P450 3A4 (Homo sapiens, UniProt P08684). Description: Inhibition of human CYP3A4. The class given is ADME.
Cytochrome P450 3A4, sequence (P08684 whole entry): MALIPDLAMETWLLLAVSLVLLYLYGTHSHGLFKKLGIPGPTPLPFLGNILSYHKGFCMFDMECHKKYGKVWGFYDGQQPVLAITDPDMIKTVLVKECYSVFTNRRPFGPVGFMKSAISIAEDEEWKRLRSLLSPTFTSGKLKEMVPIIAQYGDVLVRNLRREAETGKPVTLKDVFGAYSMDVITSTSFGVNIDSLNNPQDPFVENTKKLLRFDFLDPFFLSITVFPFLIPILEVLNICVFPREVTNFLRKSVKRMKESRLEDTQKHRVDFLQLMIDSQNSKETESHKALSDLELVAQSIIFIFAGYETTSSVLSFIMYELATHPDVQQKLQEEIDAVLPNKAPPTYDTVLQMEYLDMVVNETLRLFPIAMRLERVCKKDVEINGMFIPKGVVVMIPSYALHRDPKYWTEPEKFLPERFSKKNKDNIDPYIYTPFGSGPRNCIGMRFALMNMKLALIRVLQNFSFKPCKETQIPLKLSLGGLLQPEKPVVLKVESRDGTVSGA
Data set [17] can be described thus: Oral bioavailability in rat at 5 mg/kg. The following applies: in vivo. In kind it is ADME, organism-based.
The target of data set [18] is Matrix metalloproteinase-14 (Homo sapiens, UniProt P50281).
For data set [19], the species on record is Rattus norvegicus. Description: Toxicity in rat assessed as change in clinical chemistry or hematological parameters after 28 days. In kind it is organism-based. The following applies: in vivo, 672 h.
The species entered for data set [20] is Rattus norvegicus. The experiment in a line: Toxicity in rat assessed as change in connective tissue after 28 days. The class given is organism-based. The following applies: in vivo, 672 h.
The next data set concerns the target T1, Cytochrome P450 1A2 (Homo sapiens, UniProt P05177).
T1 sequence (P05177 whole entry): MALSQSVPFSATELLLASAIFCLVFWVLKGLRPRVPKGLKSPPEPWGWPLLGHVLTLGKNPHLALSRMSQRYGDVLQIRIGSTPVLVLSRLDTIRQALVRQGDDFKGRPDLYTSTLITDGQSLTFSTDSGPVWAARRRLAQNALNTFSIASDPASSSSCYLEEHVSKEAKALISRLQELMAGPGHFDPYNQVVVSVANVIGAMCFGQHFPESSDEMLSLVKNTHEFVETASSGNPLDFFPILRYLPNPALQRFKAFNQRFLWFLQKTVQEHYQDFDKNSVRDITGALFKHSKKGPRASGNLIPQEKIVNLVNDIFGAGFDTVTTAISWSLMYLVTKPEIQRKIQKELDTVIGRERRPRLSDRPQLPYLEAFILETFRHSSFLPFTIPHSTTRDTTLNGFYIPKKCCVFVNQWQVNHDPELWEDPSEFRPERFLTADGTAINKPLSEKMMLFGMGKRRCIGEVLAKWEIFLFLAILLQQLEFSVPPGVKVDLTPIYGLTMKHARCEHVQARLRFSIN
The experiment in a line: Inhibition of human CYP1A2. In kind it is ADME.

Another data set is filed under the species Cavia porcellus. Description: animal or person. The following applies: Dunkin Hartley, sc, 2016 h, read-out: INH.
Data set [21] in a line: Fraction unbound in rat plasma. In kind it is ADME, cell-free.
Another data set has as its target Cytochrome P450 2C19 (Homo sapiens, UniProt P33261). The experiment in a line: Inhibition of human CYP2C19. The class given is ADME.
Data set [22] can be described thus: in vitro. As to conditions: human, Caco-2.
The nature of data set [23]: Thermodynamic solubility of the compound in phosphate buffer at pH 7.4 at 25 degC after 24 hrs. The following applies: read-out: Therm_solubility.
Another data set deals with Salmonella typhimurium. Description: Mutagenic activity in Salmonella typhimurium by Ames assay. The following applies: salmonella enterica subsp. enterica serovar typhimurium. In kind it is toxicity, organism-based. A general note: In the Ames test, an excess of revertant colonies over the control signals mutagenicity.
Data set [24] in a line: Volume of distribution at steady state in dog at 0.5 mg/kg, iv and 1 mg/kg, po. In kind it is ADME, organism-based, Canis lupus familiaris. The following applies: in vivo, read-out: Vdss.
The nature of data set [25]: in vitro. The following applies: human, liver microsomes. In general terms: Liver microsomes are vesicles of endoplasmic reticulum, rich in cytochrome P450 enzymes.
For data set [26], the target named is Macrophage metalloelastase (Homo sapiens, UniProt P39900). The experiment in a line: Inhibition of MMP-12 (unknown origin) by fluorescence assay.
Macrophage metalloelastase, sequence (P39900 whole entry): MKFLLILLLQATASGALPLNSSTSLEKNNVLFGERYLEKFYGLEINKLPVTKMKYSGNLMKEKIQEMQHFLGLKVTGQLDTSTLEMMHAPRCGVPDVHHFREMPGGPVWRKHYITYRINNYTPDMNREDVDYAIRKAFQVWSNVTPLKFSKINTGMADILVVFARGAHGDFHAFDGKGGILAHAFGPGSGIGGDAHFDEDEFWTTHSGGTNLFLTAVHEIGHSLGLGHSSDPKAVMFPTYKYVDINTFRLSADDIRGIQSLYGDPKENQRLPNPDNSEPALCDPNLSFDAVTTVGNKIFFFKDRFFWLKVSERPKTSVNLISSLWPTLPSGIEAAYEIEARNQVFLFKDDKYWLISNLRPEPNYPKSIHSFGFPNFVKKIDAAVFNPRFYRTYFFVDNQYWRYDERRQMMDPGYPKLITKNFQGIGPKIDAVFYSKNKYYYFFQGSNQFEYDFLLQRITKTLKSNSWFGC
A short description of data set [27]: Intrinsic clearance in rat liver microsomes. The following applies: read-out: CLH. The class given is ADME, Microsome.
Data set [28] is described as follows: Intrinsic clearance in dog liver microsomes. The class given is ADME, Canis lupus familiaris, Microsome. The following applies: read-out: CLH.

Cytochrome P450 2C19, sequence (P33261 whole entry): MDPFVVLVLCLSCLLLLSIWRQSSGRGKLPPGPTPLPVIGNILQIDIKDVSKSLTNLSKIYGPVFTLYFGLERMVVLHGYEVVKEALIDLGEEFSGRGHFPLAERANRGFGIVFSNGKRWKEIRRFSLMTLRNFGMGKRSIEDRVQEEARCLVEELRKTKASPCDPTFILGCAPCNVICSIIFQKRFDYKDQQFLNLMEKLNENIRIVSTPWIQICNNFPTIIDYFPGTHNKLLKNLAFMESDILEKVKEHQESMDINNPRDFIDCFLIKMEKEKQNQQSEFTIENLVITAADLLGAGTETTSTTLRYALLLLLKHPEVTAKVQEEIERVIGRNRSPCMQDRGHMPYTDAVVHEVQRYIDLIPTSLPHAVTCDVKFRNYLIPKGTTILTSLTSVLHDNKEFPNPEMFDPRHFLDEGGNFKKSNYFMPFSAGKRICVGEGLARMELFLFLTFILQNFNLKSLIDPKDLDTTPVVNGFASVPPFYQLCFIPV
Cytochrome P450 2C9, sequence (P11712 whole entry): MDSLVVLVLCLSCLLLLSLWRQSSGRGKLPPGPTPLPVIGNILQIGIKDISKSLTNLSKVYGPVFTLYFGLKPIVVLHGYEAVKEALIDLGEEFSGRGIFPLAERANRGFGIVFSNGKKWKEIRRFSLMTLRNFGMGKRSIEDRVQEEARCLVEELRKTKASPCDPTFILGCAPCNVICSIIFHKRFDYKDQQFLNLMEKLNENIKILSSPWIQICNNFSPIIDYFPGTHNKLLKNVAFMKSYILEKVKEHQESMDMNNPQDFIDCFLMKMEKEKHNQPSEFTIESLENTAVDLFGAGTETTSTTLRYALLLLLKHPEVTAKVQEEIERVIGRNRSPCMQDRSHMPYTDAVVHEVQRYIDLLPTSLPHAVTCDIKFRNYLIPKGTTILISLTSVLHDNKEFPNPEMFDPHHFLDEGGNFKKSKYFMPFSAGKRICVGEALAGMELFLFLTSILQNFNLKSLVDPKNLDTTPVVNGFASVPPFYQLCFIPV

Turning to `C[C@]1(CS(=O)(=O)N2CCC(Oc3ccc(OC(F)(F)C(F)F)cc3)CC2)NC(=O)NC1=O`, the Activity entry (in the data set listed under Rattus norvegicus [1]; in the data set listed under Rattus norvegicus [3]; in the data set listed under Rattus norvegicus [13]; in [14]; in the data set listed under Rattus norvegicus [15]; in the data set listed under Rattus norvegicus [19]) was “Non-toxic” in each case. Besides, the Activity entry in the data set filed under Rattus norvegicus [20] and in the data set on Salmonella typhimurium was “Non-toxic” in each case. In addition, the hepatocyte CLint in [2] is under 2 µL/min/1e6 cells. In data set [4], the Papp B→A (in general, the apparent permeability from the basolateral to the apical side of a cell layer) at 10 µM was 52 ×10⁻⁶ cm/s. Besides, the IC50 – broadly, the concentration that inhibits the measured activity by half – at Cytochrome P450 2C9 is over 10 µM; against Cytochrome P450 2D6, over 10 µM; against Cytochrome P450 3A4, over 10 µM; in data set [18], 2.22 µM; against Cytochrome P450 1A2 it was over 10 µM; against Cytochrome P450 2C19 it was over 10 µM. The half-life (in general, how long it takes for the measured level to halve) is 16 h in [5] and 35 h in data set [8]. The clearance worked out at 0.4 mL/min/kg in [6] and 0.2 mL/min/kg in data set [11]. In [7], the solubility (commonly the concentration that dissolves in the medium under given conditions) is 14.9 µM (≈ 7.2 µg/mL). For the same compound, in “physchem”, the logD (as a rule, the decadic logarithm of the distribution of all forms, ionised or not, between an organic phase and buffer at a given pH) came to 2. The Vd in data set [9] and in [24] was 0.6 L/kg each time. For the same compound, the bioavailability (commonly the share of a dose that reaches the circulation, judged against a reference dose that is usually intravenous) in data set [10] was 40%; in data set [17], 64%. Further, the results for the fraction unbound in data set [12], in data set [16] and in data set [21] were 0.05, 0.05 and 0.03, respectively. Besides, in the data set listed under Cavia porcellus, the inhibition in vivo at 11 mg/kg/day came out at 104%. The Papp A→B (as a rule, the apparent permeability from the apical to the basolateral side of a cell layer) at 10 µM in “in vitro [22]” is 21 ×10⁻⁶ cm/s. Besides, the solubility thermodynamic at 24 h in data set [23] was determined as 6.8 µM (≈ 3.29 µg/mL). In “in vitro [25]”, this compound gave a microsomal CLint of under 2 µL/min/mg.

As for `C[C@]1(CS(=O)(=O)N2CCC(Oc3ccc(C(F)(F)F)cc3)CC2)NC(=O)NC1=O`, the IC50 is over 40 µM against Cytochrome P450 2C9; over 40 µM against Cytochrome P450 2D6; over 40 µM against Cytochrome P450 3A4; 0.0059 µM in [26]; over 40 µM on Cytochrome P450 1A2; over 40 µM against Cytochrome P450 2C19. Also, the solubility thermodynamic at 24 h in data set [23] amounted to 23 µM (≈ 10 µg/mL). Also, the microsomal CLint (in data set [27]; in data set [28]; in the data set “in vitro [25]”) was under 10 µL/min/mg in each case.
